Test results taken from patent publication US12168781B2, “Production method for T cells or NK cells, medium for culturing T cells or NK cells, method for culturing T cells or NK cells, method for maintaining undifferentiated state of undifferentiated T cells, and growth-accelerating agent for T cells or NK cells” (KIRIN HOLDINGS KABUSHIKI KAISHA, priority 2018, dated 2024).

What was measured:
naive T cells = experiment: Proliferation of sorted naive T cells, trypan blue count; assay type: cell-based, human; settings: 1 μM, naive T cells, 6, 9, 12 and 14 days, FIG. 18C
Source text: NPL 4 reports that hierarchy exists in T cells (FIG. 18A). In this Example, a fraction in which berbamine acts in T cells was verified. As a method therefor, PBMCs (CTL, Inc.) derived from a healthy subject was washed with a staining solution (PBS containing 2% FBS), and then stained with CCR7-APC (BioLegend, 353214), CD45RA-BV510 (BioLegend, 304142), CD45RO-APC-Cy7 (BioLegend, 307228), CD95-PC-Cy7 (BioLegend, 305622), CD8β-PE (Beckman, IM2217U), and CD4-BV421 (BioLegend, 317434).
After washing, the cells were resuspended in the staining solution containing PI, and by using BD AriaII Cell Sorter (BD Bioscience), in the CD8β(+) cells, CCR7(+)CD45RA(+)CD95(−)CD45RO(−) was sorted as naive T cells, CCR7(+)CD45RA(+)CD95(+)CD45RO(+) was sorted as stem cell memory T cells, CCR7(+)CD45RA(−)CD45RO(+) was sorted as central memory T cells, and CCR7(−) CD45RA(−)CD45RO(+) was sorted as effector memory T cells.
The respective cells (about 3,000 cells/well) were seeded, and berbamine (BBM) at 1 μM or MilliQ water that is a solvent for the compound as a control was added thereto, and the cells were stimulated with CD3/CD28 Dynabeads (about 9,000 beads/well). The cells were cultured using the same culture medium as in Example 6.
After 6, 9, 12, and 14 days of culturing, the number of viable cells was counted by a trypan blue method. In a statistical analysis, a Student's t-test was used (*: p<0.05).

T-iPS-T cells = experiment: Comparison with PBMC feeder: proliferation of T-iPS-T cells; assay type: cell-based, human; settings: 1 μM added to CD3/CD28 Dynabeads vs PBMC feeder, FIG. 10
Procedure: By using T-iPS-T cells, a proliferation promoting effect was compared by culturing the cells using the following three methods: the same stimulation method as in Example 2 using PBMC feeder, the same stimulation method as in Example 4 using CD3/CD28 Dynabeads, and the same stimulation method as in Example 4 in which berbamine (SIGMA, 547190) at 1 μM was added to CD3/CD28 Dynabeads. The PBMC feeder cells were labeled using CellTrace CFSE Cell Proliferation Kit for Flow Cytometry (CFSE, Invitrogen, 100 nM) in order to discriminate them from T-iPS-T cells, and then, a radiation irradiation treatment was performed.
From the above results, it can be said that the present invention can substitute PBMCs which have been conventionally used for the proliferation of T cells.

COc1cc2c3cc1Oc1c(OC)c(OC)cc4c1[C@@H](Cc1ccc(O)c(c1)Oc1ccc(cc1)C[C@@H]3N(C)CC2)N(C)CC4 [berbamine]
number of viable cells compared with MilliQ water (naive T cells): significant enhancement of cell proliferation
number of undifferentiated cells compared with the presence of feeder cells (T-iPS-T cells): comparable results
number of viable cells compared with the presence of feeder cells (T-iPS-T cells): significant increase in the number of viable cells
